Our source for the IC50 values is patent US8163756B2 (priority 2004, dated 2012).

The target in the first assay is B-Raf(V599E) kinase (Homo sapiens, UniProt P15056, V600E). Kind of assay: B-Raf(V599E) kinase assay B1 (construct 1, MEK1 substrate, coupled spectrophotometric). In kind it is biochemical.
B-Raf(V599E) kinase, sequence (P15056 with tags, fused parts or gaps V600E): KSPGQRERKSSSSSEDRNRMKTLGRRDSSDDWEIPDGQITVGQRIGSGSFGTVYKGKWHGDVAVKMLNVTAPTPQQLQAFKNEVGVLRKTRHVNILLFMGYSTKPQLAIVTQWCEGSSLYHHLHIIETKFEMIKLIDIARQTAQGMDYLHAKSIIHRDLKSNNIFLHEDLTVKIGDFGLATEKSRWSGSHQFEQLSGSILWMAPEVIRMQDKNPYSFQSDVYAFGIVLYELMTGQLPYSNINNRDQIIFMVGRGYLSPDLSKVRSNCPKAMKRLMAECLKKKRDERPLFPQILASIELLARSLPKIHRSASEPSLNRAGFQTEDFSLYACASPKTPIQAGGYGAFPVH
Settings: not given
How it is done:
The test compounds were incubated with the reaction mixtureat 30° C. for 2 h. […] The reaction rate was calculated using the […] time frame. […] IC50 values were calculated from a series of percent inhibition values determined at a range of inhibitor concentrations using software routines as implemented in the GraphPad Prism software package.
For `CC(C)(C)c1cc(NC(=O)Nc2ccccc2F)n(-c2cccc(CC(=O)O)c2)n1` [Example 371, 2-(3-(3-t-butyl-5-(3-(2-fluorophenyl)-ureido)-1H-pyrazol-1-yl)phenyl)acetic acid], the IC50 is 0.01 µM.

The compound `CC(C)(C)c1cc(NC(=O)Nc2ccccc2F)n(-c2cc(CO)c3ccccc3c2)n1` [Example 291, 1-(3-t-butyl-1-(4-(hydroxymethyl)naphthalen-2-yl)-1H-pyrazol-5-yl)-3-(2-fluorophenyl)urea] displayed an IC50 of 0.0053 µM.

In turn, `CC(C)(C)c1cc(NC(=O)NC2CCCCC2)n(-c2cccc(CC(N)=O)c2)n1` [Example 391, 1-{1-[3-(2-amino-2-oxoethyl)phenyl]-3-t-butyl-1H-pyrazol-5-yl}-3-cyclohexylurea] displayed an IC50 of 0.037 µM.

On to `CC(C)(C)c1cc(NC(=O)Nc2cccc(Cl)c2Cl)n(-c2cccc(C(=O)O)c2)n1` [Example 226, 3-{3-t-butyl-5-[3-(2,3-dichlorophenyl)ureido]-1H-pyrazol-1-yl}benzoic acid], for which the IC50 stood at 0.02 µM.

Turning to `CC(C)(C)c1cc(NC(=O)Nc2ccc(F)cc2F)n(-c2ccc3c(c2)C(=O)NCC3)n1` [Example 311, 1-(3-t-butyl-1-(1-oxo-1,2,3,4-tetrahydroiso-quinolin-7-yl)-1H-pyrazol-5-yl)-3-(2,4-difluorophenyl)urea], the IC50 was 0.032 µM.

Turning to `CC(C)(C)c1cc(NC(=O)Nc2ccc(F)cc2F)n(-c2cccc(CC(=O)O)c2)n1` [Example 369, 2-(3-(3-t-butyl-5-(3-(2,4-difluorophenyl)-ureido)-1H-pyrazol-1-yl)phenyl)acetic acid], the IC50 came out at 0.015 µM.

`CC(C)NCCc1cccc(-n2nc(C(C)(C)C)cc2NC(=O)Nc2cccc(Cl)c2Cl)c1` [Example 259, 1-(3-t-butyl-1-(3-(2-(isopropylamino)ethyl)phenyl)-1H-pyrazol-5-yl)-3-(2,3-dichlorophenyl)urea]: the IC50 was 0.0083 µM.

Take `CC(C)(C)c1cc(NC(=O)Nc2cccc(Cl)c2Cl)n(-c2cccc(CC(N)=O)c2)n1` [Example 25, 1-{1-[3-(2-amino-2-oxoethyl)phenyl]-3-t-butyl-1H-pyrazol-5-yl}-3-(2,3-dichlorophenyl)urea]: the IC50 is 0.0035 µM.

In turn, `CC(C(=O)O)c1cccc(-n2nc(C(C)(C)C)cc2NC(=O)Nc2cccc(Cl)c2Cl)c1` (centres unmarked) [Example 248, 2-(3-(3-t-butyl-5-(3-(2,3-dichlorophenyl)ureido)-1H-pyrazol-1-yl)phenyl)propanoic acid] showed an IC50 of 0.0081 µM.

`CC(C)(C)c1cc(NC(=O)Nc2ccc3c(c2)OCO3)n(-c2cccc(CC(=O)O)c2)n1` [Example 372, 2-(3-{5-[3-(benzo[1,3]dioxol-5-yl)ureido]-3-t-butyl-1H-pyrazol-1-yl}phenyl)acetic acid] displayed an IC50 of 0.027 µM.

`CC(C)(C)c1cc(NC(=O)Nc2ccc(Cl)cc2)n(-c2ccc3c(c2)CCC(=O)N3)n1` [Example 315, 1-(3-t-butyl-1-(2-oxo-1,2,3,4-tetrahydro-quinolin-6-yl)-1H-pyrazol-5-yl)-3-(4-chlorophenyl)urea] yielded an IC50 of 0.186 µM.

Regarding `CC(C)(C)c1cc(NC(=O)Nc2cccc(Cl)c2Cl)n(-c2cccc(CC(=O)N3CC[C@@H](O)C3)c2)n1` [Example 443, 1-(3-t-butyl-1-(3-(2-((R)-3-hydroxypyrrolidin-1-yl)-2-oxoethyl)phenyl)-1H-pyrazol-5-yl)-3-(2,3-dichlorophenyl)urea], the IC50 was found to be 0.009 µM.

The compound `CC(C)(C)c1cc(NC(=O)Nc2ccc3c(c2)OCO3)n(-c2cccc(CO)c2)n1` [Example 221, 1-(benzo[d][1,3]dioxol-5-yl)-3-(3-t-butyl-1-(3-(hydroxymethyl)phenyl)-1H-pyrazol-5-yl)urea] displayed an IC50 of 0.088 µM.

Consider `CC(C)(C)c1cc(NC(=O)Nc2ccccc2)n(-c2cc(CN)c3ccccc3c2)n1` [Example 295, 1-[1-(4-(aminomethyl)naphthalen-2-yl)-3-t-butyl-1H-pyrazol-5-yl]-3-phenylurea], for which the IC50 was found to be 0.052 µM.

On to `CC(C)(C)c1cc(NC(=O)Nc2ccc(F)c(F)c2)n(-c2cccc(CC(N)=O)c2)n1` [Example 436, 1-(1-(3-(2-amino-2-oxoethyl)phenyl)-3-t-butyl-1H-pyrazol-5-yl)-3-(3,4-difluorophenyl)urea], for which the IC50 is 0.018 µM.

As for `CC(C)(C)c1cc(NC(=O)NC2CCCCC2)n(-c2ccc3c(c2)C(=O)NCC3)n1` [Example 310, 1-(3-t-butyl-1-(1-oxo-1,2,3,4-tetrahydroiso-quinolin-7-yl)-1H-pyrazol-5-yl)-3-cyclohexylurea], the IC50 is 0.098 µM.

`Cc1cc(NC(=O)Nc2cc(C(C)(C)C)nn2-c2ccc3c(c2)C(=O)NCC3)no1` [Example 314, 1-(3-t-butyl-1-(1-oxo-1,2,3,4-tetrahydroiso-quinolin-7-yl)-1H-pyrazol-5-yl)-3-(5-methylisoxazol-3-yl)urea] yielded an IC50 of 0.266 µM.

On to `CC(C)(C)c1cc(NC(=O)Nc2cccc(Cl)c2Cl)n(-c2ccc(C(=O)O)cc2)n1` [Example 244, 4-{3-t-butyl-5-[3-(2,3-dichlorophenyl)ureido]-1H-pyrazol-1-yl}benzoic acid], for which the IC50 turned out to be 0.038 µM.

`CC(C)(C)c1cc(NC(=O)Nc2cccc(F)c2F)n(-c2ccc(CO)cc2)n1` [Example 246, 1-{3-t-butyl-1-[4-(hydroxymethyl)phenyl]-1H-pyrazol-5-yl}-3-(2,3-difluoro-phenyl)urea]: the IC50 was found to be 0.039 µM.

`CC(C)(C)c1cc(NC(=O)Nc2cccc(Cl)c2Cl)n(-c2ccc(CC(N)=O)cc2)n1` [Example 492, 1-(1-(4-(2-amino-2-oxoethyl)phenyl)-3-t-butyl-1H-pyrazol-5-yl)-3-(2,3-dichlorophenyl)urea]: the IC50 was 0.0064 µM.

For `CC(C)(C)c1cc(NC(=O)Nc2ccc3c(c2)OCO3)n(-c2cccc(CCN)c2)n1` [Example 253, 1-{1-[3-(2-aminoethyl)phenyl]-3-t-butyl-1 H-pyrazol-5-yl}-3-(benzo[d][1,3]dioxol-5-yl)urea], the IC50 was 0.075 µM.

On to `CC(C)(C)c1cc(NC(=O)Nc2ccc(Cl)cc2)n(-c2cccc(CN3C(=O)C(=O)N(c4ccccc4)C3=O)c2)n1` [Example 269, 1-(3-t-butyl-1-(3-[(2,4,5-trioxo-3-phenylimidazolidin-1-yl)methyl]phenyl}-1H-pyrazol-5-yl)-3-(4-chlorophenyl)urea], for which the IC50 is 0.279 µM.

`CC(C)(C)c1cc(NC(=O)NC2CCCC2)n(-c2cc(CC(N)=O)c3ccccc3c2)n1` [Example 93, 1-(1-(4-(2-amino-2-oxoethyl)naphthalen-2-yl)-3-t-butyl-1H-pyrazol-5-yl)-3-cyclopentylurea] had an IC50 of 0.06 µM.

The compound `CC(C)(C)c1cc(NC(=O)Nc2ccccc2)n(-c2cc(CC(N)=O)c3ccccc3c2)n1` [Example 88, 1-(1-(4-(2-amino-2-oxoethyl)naphthalen-2-yl)-3-t-butyl-1H-pyrazol-5-yl)-3-phenylurea] showed an IC50 of 0.012 µM.

Consider `CC(=O)OCc1cccc(-n2nc(C(C)(C)C)cc2NC(=O)Nc2cccc(Cl)c2Cl)c1` [Example 245, 3-(3-t-butyl-5-(3-(2,3-dichlorophenyl)ureido)-1H-pyrazol-1-yl)benzyl acetate], for which the IC50 was 0.0053 µM.

`CC(C)(C)c1cc(NC(=O)Nc2cc(F)c(F)cc2F)n(-c2ccc3c(c2)CCC(=O)N3)n1` [Example 323, 1-(3-t-butyl-1-(2-oxo-1,2,3,4-tetrahydro-quinolin-6-yl)-1H-pyrazol-5-yl)-3-(2,4,5-trifluorophenyl)urea] displayed an IC50 of 0.0034 µM.

For the compound `COc1ccc(-n2nc(C(C)(C)C)cc2NC(=O)Nc2cccc(C(F)(F)F)c2)cc1` [Example 238, 1-[3-t-butyl-1-(4-methoxyphenyl)-1H-pyrazol-5-yl]-3-(3-trifluoromethylphenyl)urea], the IC50 worked out at 0.065 µM.

Consider `CC(C)(C)c1cc(NC(=O)Nc2cccc(Cl)c2Cl)n(-c2cc(CCO)c3ccccc3c2)n1` [Example 303, 1-{5-t-butyl-2-[4-(2-hydroxyethyl)naphthalen-2-yl]-2H-pyrazol-3-yl}-3-(2,3-dichlorophenyl)urea], for which the IC50 turned out to be 0.0043 µM.

`C[C@H](NC(=O)Nc1cc(C(C)(C)C)nn1-c1cccc(CC(N)=O)c1)c1ccccc1` [Example 392, 1-{1-[3-(2-amino-2-oxoethyl)phenyl]-3-t-butyl-1H-pyrazol-5-yl}-3-((S)-1-phenylethyl)urea]: the IC50 was determined as 0.221 µM.

`CC(C)(C)c1cc(NC(=O)Nc2cccc(F)c2)n(-c2ccc3c(c2)CCN3)n1` [Example 306, 1-(3-t-butyl-1-(indolin-5-yl)-1H-pyrazol-5-yl)-3-(3-fluorophenyl)urea] returned an IC50 of 0.036 µM.

Turning to `CC(C)(C)c1cc(NC(=O)Nc2ccc(F)cc2)n(-c2cccc(Cn3c(=O)[nH]n(-c4ccccc4)c3=O)c2)n1` [Example 272, 1-(3-t-butyl-1-{3-[(3,5-dioxo-1-phenyl-1,2,4-triazolidin-4-yl)methyl]phenyl}-1H-pyrazol-5-yl)-3-(4-fluorophenyl)urea], the IC50 came out at 0.061 µM.

The compound `CC(C)(C)c1ncc(NC(=O)Nc2cccc(Oc3ccccc3)c2)c(-c2ccccc2)n1` [Example 280, 1-(2-t-butyl-4-phenylpyrimidin-5-yl)-3-(3-phenoxyphenyl)urea] showed an IC50 of 0.275 µM.

The same assay, now with this note: Method B1; read-out: B-Raf Data.
`NC(=O)Cc1cccc(-n2nc(-c3cccs3)cc2NC(=O)Nc2cccc(Cl)c2Cl)c1` [Example 445, 1-(1-(3-(2-amino-2-oxoethyl)phenyl)-3-(thiophen-2-yl)-1H-pyrazol-5-yl)-3-(2,3-dichlorophenyl)urea]: the IC50 turned out to be 0.838 µM.

Take `O=C(O)Cc1cccc(-n2nc(-c3cccs3)cc2NC(=O)Nc2cccc(Cl)c2Cl)c1` [Example 366, 2-(3-(5-(3-(2,3-dichlorophenyl)-ureido)-3-(thiophen-2-yl)-1H-pyrazol-1-yl)phenyl)acetic acid]: the IC50 was 0.157 µM.

In the case of `O=C(O)Cc1cccc(-n2nc(C3CCCC3)cc2NC(=O)Nc2cccc(Cl)c2Cl)c1` [Example 368, 2-(3-(3-cyclopentyl-5-(3-(2,3-dichlorophenyl)-ureido)-1H-pyrazol-1-yl)phenyl)acetic acid], the IC50 amounted to 0.0062 µM.
